# In patent US12670969B2, “Network medicine framework for identifying drug repurposing opportunities” (Northeastern University, priority 2020, dated 2026):
# What was measured:
# Huh7 cells = details: in high concentration
# [1] = test system: SARS-CoV-2 strain USA-WA1/2020; type: cell-based; details: VeroE6 cells, drugs from 8 μM down to 8 nM
# SARS-CoV-2 = details: positive control used at 5 μM; cited from earlier work
# Caco-2 = Caco-2 cells; cited from earlier work
compound,measurement,setting,value
CC(=O)OC[C@H]1O[C@@H]([S-])[C@H](OC(C)=O)[C@@H](OC(C)=O)[C@@H]1OC(C)=O.CCP(CC)CC.[Au+] [auranofin],cytotoxicity in Huh7 cells (reduced nuclei count),Huh7 cells,tracing cytotoxicity
CCN(CC)CCCC(C)Nc1ccnc2cc(Cl)ccc12 (stereo not drawn) [chloroquine],"outcome in VeroE6 screen, in words",[1],positive outcomes
CC(C)C[C@H](NC(=O)[C@H]1O[C@@H]1C(=O)O)C(=O)NCCCCN=C(N)N [E-64],"inhibition of SARS-CoV-2 infection, previously reported",SARS-CoV-2,inhibit SARS-CoV-2 infection
CCN(CCO)CCCC(C)Nc1ccnc2cc(Cl)ccc12 (stereo not drawn) [hydroxychloroquine],"outcome in VeroE6 screen, in words",[1],positive outcomes
CN1CCCC(n2nc(Cc3ccc(Cl)cc3)c3ccccc3c2=O)CC1 (stereo not drawn) [azelastine],cytotoxicity in Huh7 cells (reduced nuclei count),Huh7 cells,tracing cytotoxicity
CN(C)CCC=C1c2ccccc2CCc2ccccc21 [amitriptyline],"outcome in VeroE6 screen, in words",[1],S&W
CC(C)c1nc(CN(C)C(=O)N[C@H](C(=O)N[C@@H](Cc2ccccc2)C[C@H](O)[C@H](Cc2ccccc2)NC(=O)OCc2cncs2)C(C)C)cs1 [Ritonavir],"outcome in VeroE6 screen, in words",[1],no effect
CCOC(=O)N1CCC(=C2c3ccc(Cl)cc3CCc3cccnc32)CC1 [loratadine],viral activity in human cell line Caco-2,Caco-2,inhibited viral activity
same,"drug-response classification (S, W, C, N) of effect on SARS-CoV-2 infection",[1]; MOI about 0.2,N
